Reference: patent US20180110837A1, “METHODS AND ASSAYS RELATING TO MACROPHAGE DIFFERENTIATION” (THE BRIGHAM AND WOMEN'S HOSPITAL, INC., priority 2012, published 2018)
“Also recorded” adds a separate entry of the source. Each block holds one compound with its values, some of them ahead of it.

Tests used:
[1] = tested on: CD11b/CD206 infiltrating cells in CNV; test: FACS analysis of infiltrating cells from CNV eyes; format: in vivo, mouse
Method: To examine macrophages in the retina and choroid, cells were prepared from mouse eyes. To collect a sufficient number of ocular infiltrating cells, 50 burns were delivered to mouse eyes by laser. After laser injury, eyes were enucleated at different time points (1, 2, 3, 5, and 7 days). The anterior segment (cornea, iris, and lens) was excised and the posterior segment of the eye including sclera, choroid, and retina was disrupted with scissors and then shaken in DMEM (plus 10% FBS (Gibco Laboratories), 100 U/ml penicillin, 100 μg/ml streptomycin) supplemented with 0.5 mg/ml Collagenase type D (11 088 874 103, Boehringer Mannheim) at 37° C. for 60 min. The supernatants were collected and passed through a mesh. After 3 washes, viable cells were obtained. A total of 12 eyes (6 individual pools) were examined per group. The cells were stained with PE anti-mouse CD11b (557397, BD Pharmingen), FITC antimouse CD206 (MMR, 123005; BioLegend) and PE-Cy5 anti-mouse CD80 Abs (15-0801-81, eBioscience). RAW 264.7 cells were stained with PerCP anti-mouse CD11b (101230, BioLegend), PerCP anti-mouse F4/80 (123006, BioLegend), PE anti-mouse CD80 (12-0801, eBioscience), FITC anti-mouse CD206 (141704, BioLegend). […] The control animals received equivalent amounts of vehicle, glyceryl trioctanoate (91039, Sigma-Aldrich).

[2] = tested on: vascular leakage of CNV lesions; test: leakage from angiogenic vessels by fluorescein angiography after laser injury; format: in vivo, mice
Method: FA was performed in anesthetized Brown Norway rats from ROCK inhibitor or vehicle treated groups, using a digital fundus camera (SLO; HRA2; Heidelberg Engineering), 7 and 14 days after laser injury. Fluorescein injections were performed intravenously (0.2 ml of 2% fluorescein; Akorn, NDC 17478-253-10). Monkeys were injected with 5% fluorescein intravenously (Fluorescite, Alcon). FA images were evaluated by two masked retina specialists. The grading criteria were as follows: Grade-0, no hyperfluorescence; Grade-I, hyperfluorescence without leakage; Grade-IIA, hyperfluorescence in the early or mid-transit images and late leakage; Grade-IIB, bright hyperfluorescence in the transit images and late leakage beyond the treated areas. The Grade-IIB lesions were considered as clinically significant, as described previously 53. […] The control animals received equivalent amounts of vehicle, glyceryl trioctanoate (91039, Sigma-Aldrich).

CNV lesions [3] = test: laser-induced CNV in mice, lesion size in choroidal flat mounts; format: in vivo, mouse; conditions: for CNV lesions on day 14: treatment from day 1 or from day 7 after laser injury
Source text: (§1) To induce CNV, C57BL/6 mice were anesthetized and pupils were dilated with 5% phenylephrine and 0.8% tropicamide. Using a 532-nm laser (Oculight GLx, Iridex), a slit-lamp delivery system, and a cover glass as a contact lens, four spots (100 mW, 50 μm, 100 ms) were placed in each eye. The lesions were located at 3, 6, 9 and 12 o'clock, meridians centered on the optic nerve head and located 2 to 3 disk diameter from the optic nerve head. The same technique was used to induce CNV in Brown Norway rats (four spots, 150 mW, 100m, 100 ms) 53,54 and cynomolgus monkeys (700 mW, 100m, 100 ms) 29. Development of a bubble under laser radiation confirmed the rupture of the Bruch's membrane. Eyes showing hemorrhage were excluded from experiments.
(§2) Seven or fourteen days after laser injury, the size of CNV lesions was measured in choroidal flat mounts. Briefly, mice were anesthetized and perfused through the left ventricle with PBS, followed by 5 ml of 5% fluorescein isothiocyanate-dextran (FD2000S; Sigma Aldrich) in 1% gelatin. The anterior segment and retina were removed from the eyecup. The remaining retinal pigment epithelium (RPE)-choroidsclera complex was flat mounted, after relaxing radial incisions, using Mounting Medium (FM 100119, Thermo Scientific) and coverslips. Micrographs of the choroidal complex were taken with a Leica Microscope. The volume of the lesions was quantified, using confocal microscopy (Leica TCS SP2 laser scanning confocal microscope). The magnitude of the CNV lesions was determined by measuring the hyperfluorescent area with Openlab Software (Improvision). The grade of leakage was determined by Fluorescein angiography (FA).
The control animals received equivalent amounts of vehicle, glyceryl trioctanoate (91039, Sigma-Aldrich).

CNV lesions [4] = test: laser-induced CNV in rats, intravitreal ROCK inhibition; format: in vivo, Brown Norway rats
Source text: as §1
as §2, with “The remaining retinal pigment epithelium (RPE)-choroidsclera complex was flat mounted, after relaxing radial incisions, using Mounting Medium (FM 100119, Thermo Scientific) and coverslips. Micrographs of the choroidal complex were taken with a Leica Microscope.” left out, “(FA). […]” for “(FA).”

[5] = electroretinography (ERG) after intravitreal injection; format: in vivo, Brown Norway rats; conditions: rats, intravitreal injections on days 0, 3 and 6
Method: On day 13, rats were dark-adapted overnight and then anesthetized. Pupils were dilated using 1% tropicamide. Methods for recording dark- and light-adapted ERGs were performed as previously described 55.

HUVEC cells = test: cytoskeletal staining (F-actin, paxillin) of HUVEC cells; format: cell-based; conditions: versus vehicle treated controls
Source text: FIG. 11A depicts HUVEC cells stained for the cytoskeletal proteins F-actin and paxillin. […] Scale bar, 20 μm. FIG. 11B depicts Western analysis of HUVECs transfected with siRNA targeting of ROCK1, ROCK2, or both. Negative control, a scramble 20-mer RNA. BlockIt (Invitrogen), a fluorescently labeled RNA to track uptake/transfection efficiency.

ROCK1 [6] = target: T1, ROCK1 (Homo sapiens, UniProt Q13464); conditions: at concentrations up to 10 μM; cited from earlier work
T1 construct: recombinant ROCK1 and ROCK2 enzymes containing the truncated catalytic domains (PV3691 and PV3759) were purchased from Invitrogen; purchased Invitrogen PV3691
T1 sequence (Q13464 76-338 limits assumed): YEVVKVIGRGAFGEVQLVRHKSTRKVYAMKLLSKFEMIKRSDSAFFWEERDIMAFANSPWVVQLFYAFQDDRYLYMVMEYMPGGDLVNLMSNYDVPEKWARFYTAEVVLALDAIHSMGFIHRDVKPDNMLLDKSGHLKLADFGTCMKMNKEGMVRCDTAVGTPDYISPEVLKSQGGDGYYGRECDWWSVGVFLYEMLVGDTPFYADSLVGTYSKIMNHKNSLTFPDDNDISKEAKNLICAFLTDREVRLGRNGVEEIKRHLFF

[7] = in vivo; cited from earlier work
ROCK1 [8] = target: T1, ROCK1; test: ROCK1 enzymatic activity, [γ33P]ATP / S6 kinase substrate radiometric assay (FIG. 7A); format: biochemical; conditions: FIG. 7B; ROCK1 versus ROCK2
protein kinase A and C = conditions: cited from earlier work
MLCK = conditions: read-out: Ki MLCK; cited from earlier work
CNV lesions [9] = test: laser-induced CNV in cynomolgus monkeys, intravitreal fasudil; format: in vivo, cynomolgus monkey
Method: Eyes from cynomolgus monkeys between 3 and 4 years of age were used in this study. Cynomolgus monkeys were restrained in a squeeze cage and injected intramuscularly in the thigh with 20 mg/kg of ketamine hydrochloride (Sankyo Yell Pharmaceutical Products Co) for general anesthesia.
Paraffin embedded sections of human eyes were deparaffinized and rehydrated with a graded alcohol series. Immunofluorescent staining was performed with antibodies (Abs) against human von Willebrandt factor (F3520, Sigma), human MMR (CD206, MAB2534, R&D Systems), human CD80 (ab53003 Abcam) or human ROCK1 (sc-17794, Santa Cruz Biotechnology) or ROCK2 (sc-1851, Santa Cruz Biotechnology) and identified with Alexa Fluor 488 (10 μg/ml, A-11055; Invitrogen) or 647 (10 μg/ml, A21244; Invitrogen) secondary Abs. On day 3 after laser injury, 10 μm frozen sections of the posterior segment were prepared. The mouse eye sections were incubated with a rat anti-mouse F4/80 mAb (MCA497R, AbD Serotec) or CD11b (550282, BD Pharmingen), and subsequently with the secondary Ab. In monkey eyes, CD68 (goat polyclonal antibody, sc-7082, Santa Cruz), vWF (rabbit polyclonal antibody, A0082, DAKO), ROCK1 (mouse monoclonal antibody, sc-17794, Santa Cruz) and ROCK2 (goat polyclonal antibody, sc-1851, Santa Cruz) were stained. Images were obtained with a Leica microscope.
To induce CNV, C57BL/6 mice were anesthetized and pupils were dilated with 5% phenylephrine and 0.8% tropicamide. Using a 532-nm laser (Oculight GLx, Iridex), a slit-lamp delivery system, and a cover glass as a contact lens, four spots (100 mW, 50 μm, 100 ms) were placed in each eye. The lesions were located at 3, 6, 9 and 12 o'clock, meridians centered on the optic nerve head and located 2 to 3 disk diameter from the optic nerve head. […]
FA was performed in anesthetized Brown Norway rats from ROCK inhibitor or vehicle treated groups, using a digital fundus camera (SLO; HRA2; Heidelberg Engineering), 7 and 14 days after laser injury. […] FA images were evaluated by two masked retina specialists. […]

all tested kinases = conditions: scale of 0 to 1; over 175 inhibitors; cited from earlier work
[10] = IL-4, IL-10 and IL-13 injected eyes, in addition ROCK2 inhibitor treated
[11] = M1-cytokine cocktail injected eyes, in addition ROCK2 inhibitor treated
[12] = systemic treatment after laser injury
[13] = monkeys, intravitreal injections

Compound: CC(C)NC(=O)COc1cccc(-c2nc(Nc3ccc4[nH]ncc4c3)c3ccccc3n2)c1 [SLx-2119]
MaDAMs [1]: significantly decreased
percentage of clinically relevant 2B leakage [2, 10]: reduced to control levels
leakage [2, 11]: remained unaffected
leakage / percentage of the clinically relevant 2B leakages ([2]; fluorescein angiography): significantly decreased
CNV size (CNV lesions [3]; [10]): reduced to control levels
CNV (CNV lesions [3]; [11]): remained unaffected
CNV size in adiponectin−/− mice (CNV lesions [3]; adiponectin−/− mice): lack of function
dose at which maximum efficacy was reached (CNV lesions [3]; intraperitoneal): 10 mg/kg
reduction of CNV (CNV lesions [3]; intraperitoneal, dose of 1 mg/kg): 66%
CNV size (CNV lesions [3]; [12]): significantly decreased
CNV size (CNV lesions [3]; systemic treatment after laser injury, listed as selective ROCK2 inhibitor): significantly reduced
CNV lesions on day 14 (CNV lesions [3]; listed as ROCK2 inhibitor): reduced; also recorded: CNV reduction
CNV size (day 7) (CNV lesions [4]): reduces CNV
changes in the electroretinogram (ERG) [5]: does not cause functional ERG changes
paxillin distribution (HUVEC cells): comparable to the control cells
ROCK1 enzymatic activity (ROCK1 [6]): did not affect
phase I clinical (toxicity) trial [7]: successfully completed

inhibitory activities against ROCK1 and ROCK2 compared (ROCK1 [8]): equipotent
Compound: C[C@@H](N)[C@H]1CC[C@H](C(=O)Nc2ccncc2)CC1 [Y-27632, (R)-(+)-trans-N-(4-pyridyl)-4-(1-aminoethyl)-cyclohexanecarboxamide]
effect on protein kinase A and C (protein kinase A and C): affect
paxillin distribution (HUVEC cells): concentrated in the nuclear or immediate perinuclear regions

Compound: Cl.O=S(=O)(c1cccc2cnccc12)N1CCCNCC1 [fasudil, 5-(1,4-diazepan-1-ylsulfonyl)isoquinoline hydrochloride]
Ki (MLCK): 36 µM
reduction of CNV lesions compared to control (CNV lesions [3]; pan ROCK inhibition, rodents): ~60%
CNV size (CNV lesions [3]; [12]): significantly smaller
CNV lesions on day 14 (CNV lesions [3]): CNV reduction
CNV size (day 7) (CNV lesions [4]): reduces CNV
inhibitory activities against ROCK1 and ROCK2 compared (ROCK1 [8]): equipotent
macrophage infiltration into CNV lesions (CNV lesions [9]; monkey eyes, intravitreal injection): significantly reduced
CNV membrane thickness (CNV lesions [9]; [13]): significantly reduced
percentage of the clinically relevant 2B leakages (CNV lesions [9]; [13]): significantly reduced
changes in the electroretinogram (ERG) [5]: does not cause functional ERG changes
gini score (all tested kinases): 0.63
effect on protein kinase A and C (protein kinase A and C): affect
paxillin distribution (HUVEC cells): concentrated in the nuclear or immediate perinuclear regions
